Data set [1] has as its target T1, glucocorticoid (GR) receptor (Homo sapiens, UniProt P04150).
T1 sequence (P04150 1-777): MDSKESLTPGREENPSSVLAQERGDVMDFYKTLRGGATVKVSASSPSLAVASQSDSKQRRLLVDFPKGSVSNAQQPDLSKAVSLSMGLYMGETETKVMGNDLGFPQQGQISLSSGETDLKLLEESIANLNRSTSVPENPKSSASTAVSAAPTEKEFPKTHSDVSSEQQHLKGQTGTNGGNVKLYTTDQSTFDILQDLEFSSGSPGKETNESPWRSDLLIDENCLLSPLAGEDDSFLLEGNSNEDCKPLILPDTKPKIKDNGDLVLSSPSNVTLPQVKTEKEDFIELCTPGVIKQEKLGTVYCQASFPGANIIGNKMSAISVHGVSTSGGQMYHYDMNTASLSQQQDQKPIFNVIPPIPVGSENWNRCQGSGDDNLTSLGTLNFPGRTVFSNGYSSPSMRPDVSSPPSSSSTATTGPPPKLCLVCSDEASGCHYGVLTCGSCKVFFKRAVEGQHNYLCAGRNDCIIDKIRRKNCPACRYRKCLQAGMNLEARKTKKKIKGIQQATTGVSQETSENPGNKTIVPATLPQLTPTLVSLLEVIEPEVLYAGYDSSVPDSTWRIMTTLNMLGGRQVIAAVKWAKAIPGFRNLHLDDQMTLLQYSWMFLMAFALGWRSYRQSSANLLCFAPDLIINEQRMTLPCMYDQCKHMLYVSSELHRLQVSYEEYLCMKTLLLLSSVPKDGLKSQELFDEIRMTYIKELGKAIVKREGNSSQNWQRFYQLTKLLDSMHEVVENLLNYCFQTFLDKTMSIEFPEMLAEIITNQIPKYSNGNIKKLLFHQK
Particulars: cited from earlier work.

In data set [2] the test system is patients with psychotic major depression. Nature of the data set: Double-blind placebo-controlled cross-over study of mifepristone in psychotic major depression. In kind it is in vivo, human. An excerpt:
The study requires a nine day, closely observed hospital stay. Individuals included in this study were diagnosed as psychotic depressives using criteria as set forth by the DSM-IV, as described above. This diagnosis was confirmed by two psychiatrists. All are between the ages of 18 and 75. Apart from hypercortisolemia, they have no major medical problems. They have no signs of Cushings Syndrome. No […] of childbearing potential are included in the study. Individuals admitting to having used illicit drugs within a month prior to admission for the study are excluded. Individuals admitting to drinking in excess of two ounces of alcohol daily are excluded from the study. No anti-psychotic medication was taken within three days of entering the study. While, concurrent anti-depressant was not a criteria used to excluded anyone from the study, no individual was started on an anti-depressant medication while participating in the study. All patients gave their written consent to a protocol approved by the Human Subjects Committee at Stanford University Medical Center. All participants were given the Hamilton Rating Scale for Depression (HAM-D, Hamilton (1962) J. Neurol. Psychiatry, supra, discussed above) and the Structured Clinical Interview for DSM-IV Axis I mood disorders tests (as described above). Only individuals with a score greater than 21 on the HAM-D test continued in the study (a HAM-D score of >21 indicates moderate to severe depression). […] Formal psychiatric assessment, including the HAM-D rating scale (Overall (1962) supra; Kaplan (1995), supra, discussed above), the Brief Psychiatric Rating Scale (BPRS) (Overall (1962) supra; Kaplan (1995), supra, discussed above) and the […] (GAF) evaluation (DSM-IV, supra, pages 30 to 31; Kaplan, ed. (1995), supra) was carried out on days one, three, five, seven and nine of the study at 10:00 AM (at 1000 hours). A paragraph recall test (see below) was given at 11:30 AM (at 1130 hours) on days one, five and nine. Cortisol levels were measured serially every half hour from […] to 4:00 PM (1300 to 1600 hours) on days one, five and nine. Plasma ACTH and Plasma HVA was measured serially every hour from 1300 to 1600 on days one, five and nine. Routine biological and hematological studies were conducted daily, particularly to screen for evidence of relative adrenal insufficiency, i.e., hypoglycemia, eosinophilia. One means used to assess/measure improvement, or amelioration of psychosis in the study was the “Wallach Recognition Test” (a paragraph recall test). Newly evaluated individuals with an initial diagnosis of psychotic major depression, diagnosed as described above, were given a recognition task adapted from Wallach (1980) supra. Subjects listened to a taped recording of a sixteen-word list presented at the rate of one word every ten seconds. The-subject repeats each of the sixteen words and is asked to think of what the words mean to them. Following the presentation of the list, the subject engages in a twenty minute motor distraction task. The subject then listens to a fifty-word list containing the sixteen original target words plus thirty-four background distraction words. The subject then is asked to discern between target words and distractors. Sixteen newly admitted patients with an admitting diagnosis of psychotic major depression confirmed by two psychiatrists were enrolled in the study. Each patient conformed with all of the above described criteria. […] In the patients administered mifepristone, three two hundred milligram tablets per day were given for four days. […] The tablets were manufactured by Shanghai HuaLian Pharmaceuticals Co., Ltd., Shanghai, China (currently the sole commercial source of RU486). Both patients and the investigators are “blind” as to which compound (test mifepristone or placebo) the patient received.

The conditions of data set [3]: one study; cited from earlier work.
Data set [4] deals with patients with severe Cushing Syndrome. Particulars: 400 to 800 mg per day; adrenal cancers and ectopic ACTH secretion from lung cancer; cited from earlier work.
Data set [5] deals with patients with chronic severe depression. As to conditions: about 2.5 to 4.4 mg/kg per day, up to eight weeks; four patients; cited from earlier work.
In the next data set the target is T2, progesterone receptor (Homo sapiens, UniProt P06401).
T2 sequence (P06401 1-933): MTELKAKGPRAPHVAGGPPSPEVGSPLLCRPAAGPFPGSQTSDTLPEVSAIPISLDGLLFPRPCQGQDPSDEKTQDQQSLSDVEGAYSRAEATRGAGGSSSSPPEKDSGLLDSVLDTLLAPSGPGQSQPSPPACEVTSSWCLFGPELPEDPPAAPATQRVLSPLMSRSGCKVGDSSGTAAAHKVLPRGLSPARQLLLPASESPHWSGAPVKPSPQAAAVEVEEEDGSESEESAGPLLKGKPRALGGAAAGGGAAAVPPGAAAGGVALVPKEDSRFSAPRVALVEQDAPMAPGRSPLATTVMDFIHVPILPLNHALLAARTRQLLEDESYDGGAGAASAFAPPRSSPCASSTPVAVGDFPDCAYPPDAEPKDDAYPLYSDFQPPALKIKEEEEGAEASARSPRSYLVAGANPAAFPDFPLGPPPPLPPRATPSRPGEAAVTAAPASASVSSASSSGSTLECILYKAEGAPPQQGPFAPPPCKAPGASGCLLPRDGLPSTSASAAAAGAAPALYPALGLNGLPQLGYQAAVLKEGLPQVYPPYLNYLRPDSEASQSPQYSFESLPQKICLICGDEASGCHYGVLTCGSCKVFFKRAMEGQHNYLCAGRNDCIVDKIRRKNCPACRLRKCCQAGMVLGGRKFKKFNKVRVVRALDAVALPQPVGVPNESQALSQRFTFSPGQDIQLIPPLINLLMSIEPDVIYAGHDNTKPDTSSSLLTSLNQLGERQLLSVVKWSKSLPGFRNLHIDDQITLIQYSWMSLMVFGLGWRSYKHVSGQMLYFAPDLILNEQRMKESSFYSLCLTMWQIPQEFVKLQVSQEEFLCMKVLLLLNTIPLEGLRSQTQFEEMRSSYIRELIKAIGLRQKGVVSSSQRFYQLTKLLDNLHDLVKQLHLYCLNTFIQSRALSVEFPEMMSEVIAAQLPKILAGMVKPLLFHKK
As to conditions: cited from earlier work.

`CC#C[C@]1(O)CC[C@H]2[C@@H]3CCC4=CC(=O)CCC4=C3[C@@H](c3ccc(OCCN(C)C)cc3)C[C@@]21C` [RU009, 11-beta-(4 dimethyl-amninoethoxyphenyl)-17-alpha-(propynyl-17beta-hydroxy-4,9-estradien-3-one)]: the GR antagonist activity entry in data set [1] was “GR antagonist effects”.
On to `CC#C[C@]1(O)CC[C@H]2[C@@H]3CCC4=CC(=O)CCC4=C3[C@@H](c3ccc(N(C)C)cc3)C[C@@]21C` [mifepristone, 17-beta-hydroxy-11-beta-(4-dimethyl-aminophenyl)-17-alpha-(1-propynyl)-estra-4,9-dien-3-one], for which the “adverse effects reported by patient or observed by raters or staff” value in data set [2] (600 mg per day orally, four days) is reported as “no adverse effects”. Also, the psychiatric condition entry in data set [2] (600 mg per day orally, four days, three patients completed, blind not broken) is “significant improvement”. Also, the “Wallach Recognition Test: amelioration of psychosis” value in data set [2] (all individuals who received mifepristone) is “showed an amelioration of their psychosis”. Also, in data set [2] (average, score after decline), the “HAM-D score after treatment” value was “about 13.5”. For the same compound, the “HAM-D score before treatment” value in data set [2] (average, starting score) is listed as “about 26”. Besides, in data set [2] (score after decline), the “Brief Psychiatric Rating Scale (BPRS) score after treatment” value is “about 29.5”. The “Clinical Global Impression (CGI scale) score after treatment” value in data set [2] (score after drop, mildly depressed) was “about 3”. In data set [2] (starting score), the “Brief Psychiatric Rating Scale (BPRS) score before treatment” value is “about 40.5”. The “Clinical Global Impression (CGI scale) score before treatment” value in data set [2] (starting score, indicating markedly depressed) was “about 5”. Also, the “fraction of the daily dose excreted in the urine” value in data set [3] is listed as “less than 0.5%”. The “effect on acute psychosis” value in data set [4] is given as “useful in rapidly reversing acute psychosis”. For the same compound, the response to treatment entry in data set [5] is on record as “responded to treatment”. Also, in data set [1], the GR antagonist activity result is “powerful antagonist”. The “progesterone receptor antagonist activity” value on progesterone receptor is “powerful antagonist”.

(Values after patent US6362173B1, “Methods for treating psychosis associated with cocaine addiction with glucocorticoid receptor antagonists” (The Board of Trustees of the Leland Stanford Junior …, priority 1997, dated 2002).)
